ChEMBL document CHEMBL4699579, “A Peptidyl Inhibitor that Blocks Calcineurin-NFAT Interaction and Prevents Acute Lung Injury” (J Med Chem, 2020)
The source made the active and inactive calls. The calls are words filed in the database; no cut-off is given here. Positions of bridges follow the written chain, without caps; N, C: chain ends. Non-standard residues stand in square brackets, D forms with d. Residues, ends and D or L forms follow the SMILES beside them. Chains are numbered I, II in the order given. *: point of attachment. 2Nal = N[C@@H](Cc1ccc2ccccc2c1)C(=O)O; Val(3-OH) = CC(C)(O)[C@H](N)C(=O)O; Tle = CC(C)(C)[C@H](N)C(=O)O; X1 = O=C(c1ccnc(Cl)c1Cl)*; AEEA = NCCOCCOCC(=O)O

Tests used:
[1] = Drug distribution in BALB/c mouse plasma at […], ip using compound labelled with cyanine-5 measured after 24 hrs by fluorescence based assay; assay type: ADME, organism-based; conditions: in vivo, dose 2.4 mg/kg
[2] = test system: Mus musculus; experiment: Anti-inflammatory activity in BALB/c mouse model of LPS-induced ALI assessed as reduction in LPS-induced BALF protein levels at 3 mg/kg dosed via intranasal instillation pre-treated 2 hrs before LPS stimulation for 6 hrs and measured at 24 hrs; assay type: functional, organism-based
[3] = test system: Mus musculus; experiment: Anti-inflammatory activity in BALB/c mouse model of LPS-induced ALI assessed as reduction in LPS-induced TNFalpha in lung at 5 mg/kg, iv pre-treated 4 hrs before LPS stimulation for 16 hrs; assay type: functional; conditions: time 20 hrs
[4] = Drug distribution in BALB/c mouse plasma at 0.6 mg/kg, iv using compound labelled with cyanine-5 measured after 24 hrs by fluorescence based assay; assay type: ADME, organism-based; conditions: in vivo
[5] = Drug distribution in BALB/c mouse lung at […], sc using compound labelled with cyanine-5 measured after 24 hrs by fluorescence based assay; assay type: ADME, organism-based; conditions: dose 2.4 mg/kg, read-out: Drug uptake
[6] = Stability in human HCT-116 cells spheroids assessed as compound degradation at 5 uM incubated for 24 hrs by MALDI-TOF-TOF mass spectrometry; assay type: ADME, cell-based; conditions: hct-116, 24 h
[7] = Drug distribution in BALB/c mouse kidney at 0.6 mg/kg, iv using compound labelled with cyanine-5 measured after 24 hrs by fluorescence based assay; assay type: ADME, organism-based; conditions: in vivo
[8] = Drug metabolism in BALB/c mouse liver at 5 mg/kg, iv after 8 hrs by LC-MS/MS analysis; assay type: ADME, organism-based; conditions: in vivo
[9] = Drug distribution in BALB/c mouse Non-T and B lymphocytes at 0.6 mg/kg, iv using compound labelled with cyanine-5 measured after 24 hrs by flow cytometry; assay type: ADME, organism-based, Lymphocyte; conditions: in vivo
[10] = Drug distribution in BALB/c mouse Non-T and B lymphocytes at […], ip using compound labelled with cyanine-5 measured after 24 hrs by flow cytometry; assay type: ADME, organism-based, Lymphocyte; conditions: in vivo, dose 2.4 mg/kg
[11] = Drug distribution in BALB/c mouse liver at […], ip using compound labelled with cyanine-5 measured after 24 hrs by fluorescence based assay; assay type: ADME, organism-based; conditions: in vivo, dose 2.4 mg/kg
[12] = Drug distribution in BALB/c mouse liver at 0.6 mg/kg, iv using compound labelled with cyanine-5 measured after 24 hrs by fluorescence based assay; assay type: ADME, organism-based; conditions: in vivo
[13] = Drug distribution in BALB/c mouse lymph nodes at […], ip using compound labelled with cyanine-5 measured after 24 hrs by fluorescence based assay; assay type: ADME, organism-based, Lymph node; conditions: dose 2.4 mg/kg, read-out: Drug uptake
[14] = Drug distribution in BALB/c mouse kidney at […], sc using compound labelled with cyanine-5 measured after 24 hrs by fluorescence based assay; assay type: ADME, organism-based; conditions: in vivo, dose 2.4 mg/kg
[15] = Toxicity in mouse lung macrophages cells assessed as reduction in cell viability up to 25 uM incubated for 72 hrs by MTT assay; assay type: tissue-based; conditions: macrophage
[16] = Drug distribution in BALB/c mouse muscle at […], sc using compound labelled with cyanine-5 measured after 24 hrs by fluorescence based assay; assay type: ADME, organism-based, Muscle tissue; conditions: in vivo, dose 2.4 mg/kg
[17] = Drug distribution in BALB/c mouse monocytes at […], sc using compound labelled with cyanine-5 measured after 24 hrs by flow cytometry; assay type: ADME, organism-based, Monocyte; conditions: in vivo, dose 2.4 mg/kg
[18] = Drug distribution in BALB/c mouse monocytes at 0.6 mg/kg, iv using compound labelled with cyanine-5 measured after 24 hrs by flow cytometry; assay type: ADME, organism-based, Monocyte; conditions: in vivo
[19] = Drug distribution in BALB/c mouse Non-T and B lymphocytes at […], sc using compound labelled with cyanine-5 measured after 24 hrs by flow cytometry; assay type: ADME, organism-based, Lymphocyte; conditions: in vivo, dose 2.4 mg/kg
[20] = test system: Mus musculus; experiment: Anti-inflammatory activity in BALB/c mouse model of LPS-induced ALI assessed as reduction in LPS-induced IL6 in BALF at 3 mg/kg dosed via intranasal instillation pre-treated 2 hrs before LPS stimulation for 6 hrs and measured at 24 hrs; assay type: functional, organism-based
[21] = test system: Mus musculus; experiment: Anti-inflammatory activity in BALB/c mouse model of LPS-induced ALI assessed as reduction in LPS-induced IL6 level in BALF at 0.3 to 3 mg/kg dosed via intranasal instillation pre-treated 2 hrs before LPS stimulation for 6 hrs; assay type: functional
[22] = Drug distribution in BALB/c mouse neutrophils at […], sc using compound labelled with cyanine-5 measured after 24 hrs by flow cytometry; assay type: ADME, organism-based, Neutrophil; conditions: in vivo, dose 2.4 mg/kg
[23] = test system: Mus musculus; experiment: Anti-inflammatory activity in BALB/c mouse model of LPS-induced ALI assessed as effect on LPS-induced TNFalpha in kidney at 5 mg/kg, iv pre-treated 4 hrs before LPS stimulation for 16 hrs; assay type: functional, organism-based; conditions: time 20.0 hrs
[24] = Drug distribution in BALB/c mouse muscle at […], ip using compound labelled with cyanine-5 measured after 24 hrs by fluorescence based assay; assay type: ADME, organism-based, Muscle tissue; conditions: in vivo, dose 2.4 mg/kg
[25] = Drug concentration in BALB/c mouse muscle at 5 mg/kg, iv after 8 hrs by LC-MS/MS analysis; assay type: ADME, organism-based, Muscle tissue; conditions: in vivo
[26] = test system: Mus musculus; experiment: Anti-inflammatory activity in BALB/c mouse model of LPS-induced ALI assessed as reduction in LPS-induced TNFalpha in BALF at 3 mg/kg dosed via intranasal instillation pre-treated 2 hrs before LPS stimulation for 6 hrs and measured at 24 hrs; assay type: functional, organism-based
[27] = Drug distribution in BALB/c mouse monocytes at […], ip using compound labelled with cyanine-5 measured after 24 hrs by flow cytometry; assay type: ADME, organism-based, Monocyte; conditions: in vivo, dose 2.4 mg/kg
[28] = Drug uptake in human HCT-116 cells spheroids at 5 uM incubated for 4 to 24 hrs by MALDI-TOF-TOF mass spectrometry; assay type: ADME, cell-based; conditions: hct-116, 5 µM, TDE = time-dependent effect, time 4-24 hrs
[29] = Drug distribution in BALB/c mouse pancreas at […], ip using compound labelled with cyanine-5 measured after 24 hrs by fluorescence based assay; assay type: ADME, organism-based; conditions: dose 2.4 mg/kg, read-out: Drug uptake
[30] = Drug distribution in BALB/c mouse heart at 0.6 mg/kg, iv using compound labelled with cyanine-5 measured after 24 hrs by fluorescence based assay; assay type: ADME, organism-based; conditions: read-out: Drug uptake
[31] = test system: HeLa; experiment: Toxicity in human HeLa cells assessed as reduction in cell viability up to 25 uM incubated for 72 hrs by MTT assay; assay type: cell-based
[32] = Drug distribution in BALB/c mouse pancreas at 0.6 mg/kg, iv using compound labelled with cyanine-5 measured after 24 hrs by fluorescence based assay; assay type: ADME, organism-based; conditions: read-out: Drug uptake
[33] = Drug distribution in BALB/c mouse heart at […], sc using compound labelled with cyanine-5 measured after 24 hrs by fluorescence based assay; assay type: ADME, organism-based; conditions: dose 2.4 mg/kg, read-out: Drug uptake
[34] = Plasma concentration in BALB/c mouse at 5 mg/kg, iv after 8 hrs by LC-MS/MS analysis; assay type: ADME, organism-based
[35] = Drug metabolism in BALB/c mouse plasma at 5 mg/kg, iv after 8 hrs by LC-MS/MS analysis; assay type: ADME, organism-based; conditions: in vivo
[36] = test system: Mus musculus; experiment: Anti-inflammatory activity in BALB/c mouse model of LPS-induced ALI assessed as reduction in LPS-induced IL6 in BALF at 5 mg/kg, iv pre-treated 4 hrs before LPS stimulation for 16 hrs; assay type: functional, organism-based; conditions: time 20.0 hrs
[37] = Stability in simulated gastric fluid at 5 uM incubated for 2 hrs by LC/MS/MS analysis
[38] = test system: Mus musculus; experiment: Anti-inflammatory activity in BALB/c mouse model of LPS-induced ALI assessed as reduction in LPS-induced lung wet-to-dry ratios at 3 mg/kg dosed via intranasal instillation pre-treated 2 hrs before LPS stimulation for 6 hrs; assay type: functional, organism-based; conditions: time 8.0 hrs

- Drug uptake [1]: Not Active
- Drug uptake [4]: Not Active
- concentration at 24 h [5]: > 50 nM
- Stabilty [6]: Stable
- Drug uptake [7]: Active
- Drug metabolism [8]: Metabolite_Detected
- Drug uptake [9]: Active
- Drug uptake [10]: Active
- Drug uptake [11]: Active
- Drug uptake [12]: Active
- concentration at 24 h [13]: > 50 nM
- Drug uptake [14]: Active
- Drug uptake [16]: Not Active
- Drug uptake [17]: Active
- Drug uptake [18]: Active
- Drug uptake [19]: Active
- Drug uptake [22]: Active
- Drug uptake [24]: Not Active
- Drug uptake [25]: Not Active
- Drug uptake [27]: Active
- Drug uptake [28]: Tde
- concentration at 24 h [29]: > 50 nM
- concentration at 24 h [30]: > 50 nM
- concentration at 24 h [32]: > 50 nM
- concentration at 24 h [33]: > 50 nM
- concentration at 8 h [34]: 13.5 nM
- Drug metabolism [35]: Metabolite_Detected
SMILES: CC[C@H](C)[C@H](NC(=O)[C@@H](NC(=O)c1ccnc(Cl)c1Cl)C(C)(C)C)C(=O)N[C@H](C(=O)N[C@H](C(=O)N[C@H](C(=O)N[C@@H](CCC(N)=O)C(=O)N[C@@H](Cc1c[nH]cn1)C(=O)N[C@H](CC(C)C)C(=O)N[C@@H](CO)C(=O)NCCOCCOCC(=O)N[C@@H](CCCCNC(=O)CC[C@@H]1NC(=O)[C@@H](CCCNC(=N)N)NC(=O)[C@H](CCCNC(=N)N)NC(=O)[C@@H](CCCNC(=N)N)NC(=O)[C@H](CCCNC(=N)N)NC(=O)[C@H](Cc2ccc3ccccc3c2)NC(=O)[C@@H](Cc2ccccc2)NC1=O)C(N)=O)[C@@H](C)O)[C@@H](C)CC)C(C)(C)O (I: X1-[Tle]I[Val(3-OH)]ITQH[dL]S[AEEA]K-NH2 / II: cyclo([2Nal]R[dR]R[dR]E[dF]); amide I:11-II:6)
- Activity [2]: inactive
- inhibition in vivo at 5 mg/kg [3]: 100%
- Activity [15]: Non-Toxic
- Activity [20]: inactive
- Activity ([21]; dose mg/kg 0.3-3, time 8.0 hrs): Dose-dependent effect
- minimal effective dose ([21]; dose mg/kg 0.3-3, time 8 hrs, read-out: MED): 1 mg/kg
- Activity [23]: inactive
- Activity [26]: inactive
- Activity [31]: Non-Toxic
- Activity [36]: Active
- Stability [37]: Stable
- Activity [38]: Active
